Laboratory results published in patent US20250195499A1, “METHODS FOR PREVENTING OR TREATING CEREBROVASCULAR DISEASES OR TISSUE ISCHEMIA-REPERFUSION INJURY” (CO., LTD. OF JEAMOON TECHNOLOGY, priority 2022, published 2025).
“Also recorded” adds a separate entry of the source.

Legend:
[1] = system: MCAO cerebral ischemia-reperfusion (IR) mice; experiment: MCAO cerebral ischemia-reperfusion (IR) mouse model, infarct area by TTC staining; assay type: in vivo, C57BL/6J mice; details: for Infarct area percentage (%) X ± SD: IR mice, po, QD, from 4 days before surgery, 1 h ischemia, 24 h reperfusion, IR model group 48.42 ± 24.21; for Infarcted area compared with the IR group mice (in words): oral administration
Protocol: A surgical incision was made in the neck to expose a left common carotid artery (CCA), an internal carotid artery (ICA), and an external carotid artery (ECA). A pre-made filament was inserted through the external carotid artery into the internal carotid artery and advanced to a middle cerebral artery (MCA), causing ischemia in a left brain region. After 60 minutes of occlusion, the filament was removed to achieve reperfusion in the left brain region. FIG. 5 is a schematic diagram illustrating the MCAO cerebral ischemia model using the intraluminal filament approach.
1. Animal anesthesia and neck preparation: the mice were anesthetized by inhalation of 2% isoflurane gas. After muscle relaxation, the four limbs of the mice were fixed to an operating table with 3M medical tape. Depilatory cream was used to remove the hair on a side of the neck, and erythromycin eye ointment was applied to the eyeballs of the mice to prevent eye dryness.
2. Surgical incision: the neck skin was disinfected sequentially with iodophor and 75% alcohol cotton balls. A 3 cm incision was made along the midline of the neck. Under a stereomicroscope, the subcutaneous tissue and fat were bluntly dissected, the superficial fascia and platysma were incised to expose the deep fascia of the neck and the anterior tracheal muscle. After the anterior tracheal muscle was exposed, the deep cervical fascia was torn along an anterior edge of the left sternocleidomastoideole, exposing the sternocleidomastoideole, which was then pulled posteriorly. The dissection continued downward along the sternocleidomastoideole until the deeper carotid sheath was exposed.
3. Vessel exposure and isolation: while avoiding compression of the mouse trachea, the carotid sheath was incised, and the common carotid artery (CCA) was isolated, taking care not to damage the vagus nerve running alongside in the sheath, as simulation or injury to the nerve may cause sudden respiratory arrest in the animal. The dissection continued upward along the common carotid artery, and the external carotid artery was identified at an upper edge of the thyroid cartilage. […] A proximal end of the external carotid artery was gently lifted to expose the internal carotid artery located laterally and inferiorly.
4. […] The internal carotid artery was temporarily clamped with a microvascular clip. […] The branch vessels were coagulated using an electrocautery pen. A distal end of the external carotid artery was permanently ligated with a 6-0 silk ligature, while the proximal end was looped for later use.
5. Filament insertion: a small incision was made at a ligated distal end of the external carotid artery, and the filament was threaded through the incision and tied with the pre-prepared loop ligature. The incision was cut off, and the filament was adjusted and threaded into the internal carotid artery. […] The ligature was tightened to fix the filament and timing started immediately.
6. After suturing the skin, anesthesia was discontinued. Following 60 minutes of ischemia, the filament was removed to complete cerebral ischemia-reperfusion.
7. Close the incision: the incision was closed using interrupted 4-0 sutures, disinfected with iodophor, and 3 mL of saline was injected intraperitoneally for rehydration. Postoperative analgesia jelly was provided, and the mice were kept warm and monitored continuously until they recover from anesthesia.
C57BL/6J male mice, aged 8 weeks, were acclimatized for 1 week and then randomly assigned to 7 groups. Except for eight mice in the blank control group (i.e., the sham-operated control group), the remaining mice underwent MCAO surgery to induce cerebral ischemia and were randomly divided into 6 groups, including an IR model group, a TAK875 group (12 mice per group), and four LY2922470 groups with different concentrations (8 mice per group). […]

[2] = system: MCAO cerebral ischemia-reperfusion (IR) mice; details: male, C57BL/6J, mouse, in vivo, 5 days

Structure (SMILES)	Infarct area percentage (%) X ± SD ([1]; TAK875 30 mg/kg) [%]	Infarcted area compared with the IR group mice (in words) ([1]; TAK875 30 mg/kg)	Time of death after reperfusion [2] [h]	Deaths after MCAO cerebral ischemia surgery ([2]; po, 30 mg/kg)	Infarct area percentage (%) X ± SD ([1]; LY2922470 10 mg/kg)	Infarct area percentage (%) X ± SD ([1]; LY2922470 20 mg/kg) [%]	Infarct area percentage (%) X ± SD ([1]; LY2922470 40 mg/kg)	Infarct area percentage (%) X ± SD ([1]; LY2922470 80 mg/kg) [%]	Infarcted area in the brain compared with the IR group mice (in words) ([1]; LY2922470 10 mg/kg)	Infarcted area in the brain compared with the IR group mice (in words) ([1]; LY2922470 40 mg/kg)	Infarcted area compared with the IR group mice (in words) ([1]; different doses of LY2922470 (10-80 mg/kg))
Cc1cc(OCCCS(C)(=O)=O)cc(C)c1-c1cccc(COc2ccc3c(c2)OC[C@H]3CC(=O)O)c1 [TAK875]	48.9 ± 25.13	no significant decrease in the size of the infarcted area	18	one from the TAK875 group died	–	–	–	–	–	–	–
CC#C[C@@H](CC(=O)O)c1ccc(OCc2ccc(CN3CCCc4cccc(OC)c43)s2)cc1 [LY2922470]	–	–	–	–	26.77 ± 14.54 (*) %	30.55 ± 16.52	20.4 ± 6.88 (**) %	31.03 ± 17.8	significantly reduced	significantly reduced	the infarcted area in the mice was reduced; also recorded: significantly decreased
